ChEMBL document CHEMBL1671753, “Therapeutic drug monitoring of linezolid: a retrospective monocentric analysis” (Antimicrob Agents Chemother, 2010)

How the values were obtained:
[1] = AUC (12 hrs) in liver transplant patient plasma at 600 mg, iv or 600 mg, po administered every 12 hrs by HPLC; type: ADME, organism-based; settings: human
[2] = Cmax in patient plasma at 600 mg, iv or 600 mg, po administered every 12 hrs by HPLC; type: ADME, organism-based; settings: human
[3] = Drug excretion in healthy human urine assessed as unchanged compound at 600 mg, po; type: ADME, tissue-based; settings: read-out: Activity
[4] = AUC (24 hrs) in patient plasma at 600 mg, iv or 600 mg, po administered every 12 hrs by HPLC; type: ADME, organism-based; settings: human
[5] = system: Homo sapiens; experiment: Nonrenal clearance in healthy human at 600 mg, po; type: ADME, organism-based; settings: in vivo

AUC at 12 h [1]: 413 µg·h/mL
Cmax [2]: 14700 ng/mL
dose excreted [3]: 30%
AUC [4]: 196 µg·h/mL
Dose non renally cleared [5]: 65%
Compound: CC(=O)NC[C@H]1CN(c2ccc(N3CCOCC3)c(F)c2)C(=O)O1 [LINEZOLID]
